Numbers after ± are expanded uncertainties.
Legend:
[1] = xn = mol fraction of the nth substance listed; conditions: 101 kPa, Liquid, Vibrating tube method
[2] = 101 kPa, Liquid, Vibrating tube method

c1ccccc1 [benzene] + C1CCCCC1
mass density ([1]; 293 K, x1 = 1): 878.98 ± 0.16 kg/m3
mass density ([1]; 303 K, x1 = 1): 868.3 ± 0.16 kg/m3
mass density ([1]; 313 K, x1 = 1): 857.57 ± 0.16 kg/m3
mass density ([1]; 323 K, x1 = 1): 846.76 ± 0.17 kg/m3

CC(C)CC(C)(C)C [2,2,4-trimethylpentane]
mass density ([2]; 293 K): 691.88 ± 0.19 kg/m3
mass density ([2]; 303 K): 683.64 ± 0.2 kg/m3
mass density ([2]; 313 K): 675.3 ± 0.2 kg/m3
mass density ([2]; 323 K): 666.84 ± 0.2 kg/m3

C1CCCCC1 [cyclohexane]
mass density ([2]; 293 K): 778.54 ± 0.16 kg/m3
mass density ([2]; 303 K): 769.13 ± 0.16 kg/m3
mass density ([2]; 313 K): 759.6 ± 0.16 kg/m3
mass density ([2]; 323 K): 749.94 ± 0.17 kg/m3

c1ccccc1 [benzene]
mass density ([2]; 293 K): 878.98 ± 0.16 kg/m3
mass density ([2]; 303 K): 868.3 ± 0.16 kg/m3
mass density ([2]; 313 K): 857.57 ± 0.16 kg/m3
mass density ([2]; 323 K): 846.76 ± 0.17 kg/m3

C1CCCCC1 [cyclohexane] + c1ccccc1
mass density ([1]; 293 K, x2 = 0): 778.54 ± 0.16 kg/m3
mass density ([1]; 293 K, x2 = 0.1): 784.99 ± 0.16 kg/m3
mass density ([1]; 293 K, x2 = 0.1805): 790.71 ± 0.16 kg/m3
mass density ([1]; 293 K, x2 = 0.2347): 794.92 ± 0.16 kg/m3
mass density ([1]; 293 K, x2 = 0.3029): 800.47 ± 0.16 kg/m3
mass density ([1]; 293 K, x2 = 0.3801): 807.1 ± 0.16 kg/m3
mass density ([1]; 293 K, x2 = 0.4453): 813.09 ± 0.16 kg/m3
mass density ([1]; 293 K, x2 = 0.5223): 820.56 ± 0.16 kg/m3
mass density ([1]; 293 K, x2 = 0.5814): 826.62 ± 0.16 kg/m3
mass density ([1]; 293 K, x2 = 0.6563): 834.72 ± 0.16 kg/m3
mass density ([1]; 293 K, x2 = 0.7135): 841.21 ± 0.16 kg/m3
mass density ([1]; 293 K, x2 = 0.7654): 847.44 ± 0.16 kg/m3
mass density ([1]; 293 K, x2 = 0.8191): 854.16 ± 0.16 kg/m3
mass density ([1]; 293 K, x2 = 0.8771): 861.75 ± 0.16 kg/m3
mass density ([1]; 293 K, x2 = 0.9161): 867.03 ± 0.16 kg/m3
mass density ([1]; 303 K, x2 = 0): 769.13 ± 0.16 kg/m3
mass density ([1]; 303 K, x2 = 0.1): 775.47 ± 0.16 kg/m3
mass density ([1]; 303 K, x2 = 0.1805): 781.14 ± 0.16 kg/m3
mass density ([1]; 303 K, x2 = 0.2347): 785.3 ± 0.16 kg/m3
mass density ([1]; 303 K, x2 = 0.3029): 790.79 ± 0.16 kg/m3
mass density ([1]; 303 K, x2 = 0.3801): 797.33 ± 0.16 kg/m3
mass density ([1]; 303 K, x2 = 0.4453): 803.25 ± 0.16 kg/m3
mass density ([1]; 303 K, x2 = 0.5223): 810.63 ± 0.16 kg/m3
mass density ([1]; 303 K, x2 = 0.5814): 816.62 ± 0.16 kg/m3
mass density ([1]; 303 K, x2 = 0.6563): 824.62 ± 0.16 kg/m3
mass density ([1]; 303 K, x2 = 0.7135): 831.03 ± 0.16 kg/m3
mass density ([1]; 303 K, x2 = 0.7654): 837.18 ± 0.16 kg/m3
mass density ([1]; 303 K, x2 = 0.8191): 843.82 ± 0.16 kg/m3
mass density ([1]; 303 K, x2 = 0.8771): 851.31 ± 0.16 kg/m3
mass density ([1]; 303 K, x2 = 0.9161): 856.52 ± 0.16 kg/m3
mass density ([1]; 313 K, x2 = 0): 759.6 ± 0.16 kg/m3
mass density ([1]; 313 K, x2 = 0.1): 765.87 ± 0.16 kg/m3
mass density ([1]; 313 K, x2 = 0.1805): 771.46 ± 0.16 kg/m3
mass density ([1]; 313 K, x2 = 0.2347): 775.57 ± 0.16 kg/m3
mass density ([1]; 313 K, x2 = 0.3029): 781 ± 0.16 kg/m3
mass density ([1]; 313 K, x2 = 0.3801): 787.47 ± 0.16 kg/m3
mass density ([1]; 313 K, x2 = 0.4453): 793.32 ± 0.16 kg/m3
mass density ([1]; 313 K, x2 = 0.5223): 800.62 ± 0.16 kg/m3
mass density ([1]; 313 K, x2 = 0.5814): 806.53 ± 0.16 kg/m3
mass density ([1]; 313 K, x2 = 0.6563): 814.44 ± 0.16 kg/m3
mass density ([1]; 313 K, x2 = 0.7135): 820.77 ± 0.16 kg/m3
mass density ([1]; 313 K, x2 = 0.7654): 826.83 ± 0.16 kg/m3
mass density ([1]; 313 K, x2 = 0.8191): 833.39 ± 0.16 kg/m3
mass density ([1]; 313 K, x2 = 0.8771): 840.79 ± 0.16 kg/m3
mass density ([1]; 313 K, x2 = 0.9161): 845.95 ± 0.16 kg/m3
mass density ([1]; 323 K, x2 = 0): 749.94 ± 0.17 kg/m3
mass density ([1]; 323 K, x2 = 0.1): 756.14 ± 0.16 kg/m3
mass density ([1]; 323 K, x2 = 0.1805): 761.67 ± 0.16 kg/m3
mass density ([1]; 323 K, x2 = 0.2347): 765.73 ± 0.16 kg/m3
mass density ([1]; 323 K, x2 = 0.3029): 771.1 ± 0.16 kg/m3
mass density ([1]; 323 K, x2 = 0.3801): 777.5 ± 0.16 kg/m3
mass density ([1]; 323 K, x2 = 0.4453): 783.27 ± 0.16 kg/m3
mass density ([1]; 323 K, x2 = 0.5223): 790.48 ± 0.16 kg/m3
mass density ([1]; 323 K, x2 = 0.5814): 796.34 ± 0.16 kg/m3
mass density ([1]; 323 K, x2 = 0.6563): 804.14 ± 0.16 kg/m3
mass density ([1]; 323 K, x2 = 0.7135): 810.41 ± 0.16 kg/m3
mass density ([1]; 323 K, x2 = 0.7654): 816.41 ± 0.16 kg/m3
mass density ([1]; 323 K, x2 = 0.8191): 822.89 ± 0.16 kg/m3
mass density ([1]; 323 K, x2 = 0.8771): 830.19 ± 0.16 kg/m3
mass density ([1]; 323 K, x2 = 0.9161): 835.28 ± 0.17 kg/m3

CC(C)CC(C)(C)C [2,2,4-trimethylpentane] + c1ccccc1
mass density ([1]; 293 K, x2 = 0): 691.88 ± 0.19 kg/m3
mass density ([1]; 293 K, x2 = 0.1248): 704.06 ± 0.19 kg/m3
mass density ([1]; 293 K, x2 = 0.1642): 708.26 ± 0.19 kg/m3
mass density ([1]; 293 K, x2 = 0.3682): 733.74 ± 0.19 kg/m3
mass density ([1]; 293 K, x2 = 0.4538): 746.53 ± 0.18 kg/m3
mass density ([1]; 293 K, x2 = 0.502): 754.34 ± 0.18 kg/m3
mass density ([1]; 293 K, x2 = 0.5388): 760.7 ± 0.18 kg/m3
mass density ([1]; 293 K, x2 = 0.6023): 772.44 ± 0.18 kg/m3
mass density ([1]; 293 K, x2 = 0.6896): 790.37 ± 0.18 kg/m3
mass density ([1]; 293 K, x2 = 0.9443): 859.13 ± 0.17 kg/m3
mass density ([1]; 303 K, x2 = 0): 683.64 ± 0.2 kg/m3
mass density ([1]; 303 K, x2 = 0.1248): 695.66 ± 0.19 kg/m3
mass density ([1]; 303 K, x2 = 0.1642): 699.8 ± 0.19 kg/m3
mass density ([1]; 303 K, x2 = 0.3682): 724.94 ± 0.19 kg/m3
mass density ([1]; 303 K, x2 = 0.4538): 737.57 ± 0.19 kg/m3
mass density ([1]; 303 K, x2 = 0.502): 745.27 ± 0.18 kg/m3
mass density ([1]; 303 K, x2 = 0.5388): 751.54 ± 0.18 kg/m3
mass density ([1]; 303 K, x2 = 0.6023): 763.15 ± 0.18 kg/m3
mass density ([1]; 303 K, x2 = 0.6896): 780.86 ± 0.18 kg/m3
mass density ([1]; 303 K, x2 = 0.9443): 848.73 ± 0.17 kg/m3
mass density ([1]; 313 K, x2 = 0): 675.3 ± 0.2 kg/m3
mass density ([1]; 313 K, x2 = 0.1248): 687.16 ± 0.2 kg/m3
mass density ([1]; 313 K, x2 = 0.1642): 691.24 ± 0.2 kg/m3
mass density ([1]; 313 K, x2 = 0.3682): 716.05 ± 0.19 kg/m3
mass density ([1]; 313 K, x2 = 0.4538): 728.51 ± 0.19 kg/m3
mass density ([1]; 313 K, x2 = 0.502): 736.12 ± 0.19 kg/m3
mass density ([1]; 313 K, x2 = 0.5388): 742.33 ± 0.19 kg/m3
mass density ([1]; 313 K, x2 = 0.6023): 753.77 ± 0.18 kg/m3
mass density ([1]; 313 K, x2 = 0.6896): 771.25 ± 0.18 kg/m3
mass density ([1]; 313 K, x2 = 0.9443): 838.26 ± 0.17 kg/m3
mass density ([1]; 323 K, x2 = 0): 666.84 ± 0.2 kg/m3
mass density ([1]; 323 K, x2 = 0.1248): 678.53 ± 0.2 kg/m3
mass density ([1]; 323 K, x2 = 0.1642): 682.55 ± 0.2 kg/m3
mass density ([1]; 323 K, x2 = 0.3682): 707.04 ± 0.19 kg/m3
mass density ([1]; 323 K, x2 = 0.4538): 719.33 ± 0.19 kg/m3
mass density ([1]; 323 K, x2 = 0.502): 726.85 ± 0.19 kg/m3
mass density ([1]; 323 K, x2 = 0.5388): 732.96 ± 0.19 kg/m3
mass density ([1]; 323 K, x2 = 0.6023): 744.28 ± 0.18 kg/m3
mass density ([1]; 323 K, x2 = 0.6896): 761.54 ± 0.18 kg/m3
mass density ([1]; 323 K, x2 = 0.9443): 827.7 ± 0.17 kg/m3

c1ccccc1 [benzene] + CC(C)CC(C)(C)C
mass density ([1]; 293 K, x1 = 1): 878.98 ± 0.16 kg/m3
mass density ([1]; 303 K, x1 = 1): 868.3 ± 0.16 kg/m3
mass density ([1]; 313 K, x1 = 1): 857.57 ± 0.16 kg/m3
mass density ([1]; 323 K, x1 = 1): 846.76 ± 0.17 kg/m3

Source: the NIST ThermoML archive (doi:10.1016/j.fluid.2011.01.018)
